In patent publication US6638919B2, “Antiviral purine derivatives” (University College Cardiff Consultants Limited, priority 2001, dated 2003) one finds EC50, CC50 and MCCMSV data, which are given here for 14 molecules.

Where only a bound is given, the exact number is not on record here.

What all share (type): cell-based
For one series, the system named is HIV-1. Kind of series: Inhibition of HIV-1 giant cell formation in CEM cells. As to conditions: Table III; EC50 for inhibition of HIV1 in CEM cells; read-out: HIV1 CBM. How it is done:
(§1) Then 100 μL of the infected cell suspension was transferred to microtiter plate wells and mixed with 100 μL of the appropriate dilutions of the test compounds.
HIV 1 CEM: EC50 in μM for inhibition of HIV1 in CEM cells

The subject of the next series is HIV-2. Kind of series: Inhibition of HIV-2 giant cell formation in CEM cells. To be noted: Table III; EC50 for inhibition of HIV-2 in CEM cells; read-out: HIV2 CBM. The procedure:
as §1
HIV1 CEM: EC50 in μM for inhibition of […] in CEM cells.
HIV2 CEM: EC50 in μM for inhibition of HIV-2 in CEM cells

The next series relates to CEM cells. The series can be described thus: Toxicity to mock-infected CEM cells (CC50). To be noted: Table III; toxicity to CEM cells; read-out: CC50 CEN. The procedure: as §1
CC50 CEM: CC50 in μM for toxicity to CEM cells.
CC50 CEM: CC50 μM for toxicity to CEM cells

For series [1], the system named is MSV. Kind of series: Inhibition of MSV. To be noted: Table III; inhibition of MSV; read-out: EC50 MSV. How it is done: EC50 MSV: EC50 μM for inhibition of MSV
The subject of series [2] is MSV. Kind of series: Minimum cytotoxic concentration in MSV assay. On the set-up: unit not given here. As to conditions: Table III. An excerpt:
MCC MSV: minimum cytotoxic concentration in MSV essay.

With `CCOC(=O)C[C@H](NP(=O)(OC[C@@H]1C=C[C@H](n2cnc3c(NC4CC4)nc(N)nc32)C1)Oc1ccccc1)C(=O)OCC` (stereo partly drawn) [Compound 1714, (1S,4R)-4-(2-amino-6-cyclopropylamino-9H-purin-9-yl)-2-cyclopeutene-1-methanol O-(phenyldiethoxy-L-aspartyl phosphate)], the EC50 in the series with HIV-1 stood at 0.55 µM; in the series on HIV-2, 2.1 µM; with MSV [1], 7.18 µM. For the same molecule, the CC50 with CEM cells worked out at 23.1 µM. Besides, the MCCMSV in the series with MSV [2] was greater than 20.
Take `CC(C)COC(=O)[C@H](C)NP(=O)(OC[C@@H]1C=C[C@H](n2cnc3c(NC4CC4)nc(N)nc32)C1)Oc1ccccc1` (stereo partly drawn) [Compound 1672, (1S,4R)-4-(2-:amino-6-cyclopropylamino-9H-purin-9-yl-2-cyclopentene-1-methanol O-(phenyl (2-methylpropyl)oxyalaninyl phosphate)]: the figures for the EC50 in the series on HIV-1, in the series with HIV-2 and in the series with MSV [1] were 0.09 µM, 0.1 µM and 1.98 µM, respectively. In addition, the CC50 in the series on CEM cells is 14.4 µM. Moreover, the MCCMSV with MSV [2] was greater than 4.
In the case of `COC(=O)[C@H](C)NP(=O)(OC[C@@H]1C=C[C@H](n2cnc3c(NC4CC4)nc(N)nc32)C1)Oc1ccc(Br)cc1` (stereo partly drawn) [Compound 1710, (1S,4R)-4-(2-amino-6-cyclopropylamino-9H-purin-9-yl)-2-cyclopentene-1-methanol O-[4-bromophenyl-(methoxy-L-alaninyl)]-phosphate], the values for the EC50 in the series on HIV-1, in the series on HIV-2 and with MSV [1] were 0.0055 µM, 0.049 µM and 0.51 µM, respectively. Also, the CC50 in the series on CEM cells came to 5.78 µM. The MCCMSV with MSV [2] was greater than 0.8.
In the case of `CC(C)OC(=O)[C@H](C)NP(=O)(OC[C@@H]1C=C[C@H](n2cnc3c(NC4CC4)nc(N)nc32)C1)Oc1ccccc1` (stereo partly drawn) [Compound 1661, (1S,4R)-4-(2-amino-6-cyclopropylamino-9H-purin-9-yl)-2-cyclopentene-1-methanol O-Phenyl-(i-propoxy-L-alaninyl)-phosphate], the EC50 was found to be 0.5 µM with HIV-1, 0.85 µM in the series on HIV-2 and 2.75 µM with MSV [1]. For the same molecule, the CC50 with CEM cells was determined as 9.18 µM. Also, in the series on MSV [2], the MCCMSV entry was “≧20”.
In the case of `C[C@H](NP(=O)(OC[C@@H]1C=C[C@H](n2cnc3c(NC4CC4)nc(N)nc32)C1)Oc1ccccc1)C(=O)OC(C)(C)C` (stereo partly drawn) [Compound 1645, (1S,4R)-4-(2-amino-6-cyclopropylamino-9H-purin-9-yl)-2-cyclopentene-1-methanol O-(phenyl-tertbutyloxy-L-alaninyl)-phosphate], the values for the EC50 in the series with HIV-1, with HIV-2 and in the series with MSV [1] were 3.7 µM, 6 µM and 11.7 µM, respectively. Also, the CC50 in the series on CEM cells was found to be 33 µM. This molecule registered an MCCMSV in the series on MSV [2] greater than 20.
Taken in the same sequence, the figures for `COC(=O)[C@H](CCSC)NP(=O)(OC[C@@H]1C=C[C@H](n2cnc3c(NC4CC4)nc(N)nc32)C1)Oc1ccccc1` (stereo partly drawn) [Compound 1715, (1S,4R)-4-(2-amino-6-cyclopropylamino-9H-purin-9-yl)-2-cyclopentene-1-methanol O-(phenylmethoxy-L-methionyl phosphate)] were 1.15 µM, 2.73 µM, 10.2 µM, 48.9 µM and greater than 20.
For `C[C@H](NP(=O)(OC[C@@H]1C=C[C@H](n2cnc3c(NC4CC4)nc(N)nc32)C1)Oc1ccccc1)C(=O)OCC(C)(C)C` (stereo partly drawn) [Compound 1673, (1S ,4R)-442-amino6-cyclopropylamino-9H-purin-9-y)-2-cyclopentene-1-methanol O-(phenyl (2,2-dimethylpropyl)oxyalaninyl phosphate)], the EC50 is 0.15 µM with HIV-1, 0.18 µM in the series with HIV-2 and 2.92 µM in the series on MSV [1]. For the same molecule, the CC50 in the series with CEM cells amounted to 8.07 µM. For the same molecule, the MCCMSV with MSV [2] is reported as greater than 4.
For the molecule “(1S,4R)-4-(2-amino6cyclopropyl-2 -amino-9H-purin-9-yl)-2-cyclopentene-1-methanol O-((P-(2 2-dimethoxy-L-propionic acid methyl ester)-phenyl)methoxyalaninyl phosphate) [Compound 1671]”, the EC50 in the series on HIV-1 turned out to be 0.1 µM; in the series with HIV-2 it was 0.12 µM; with MSV [1], 9.2 µM. For the same molecule, in the series with CEM cells, the CC50 amounted to 12.1 µM. Also, the MCCMSV in the series on MSV [2] is greater than 20.
As for `CCCCCOC(=O)[C@H](C)NP(=O)(OC[C@@H]1C=C[C@H](n2cnc3c(NC4CC4)nc(N)nc32)C1)Oc1ccccc1` (stereo partly drawn) [Compound 1706, (1S,4R)-4-(2-amino-6-cyclopropylamino-9H-purin-9-yl)-2-cyclopentene-1-methanol 0-Phenyl-(n-pentyloxy-L-alaninyl)-phosphate], the EC50 in the series with HIV-1 came out at 0.065 µM; in the series on HIV-2 it was 0.08 µM; with MSV [1], 1.45 µM. For the same molecule, the CC50 with CEM cells turned out to be 16.4 µM. Further, the MCCMSV in the series with MSV [2] is given as greater than 4.
Turning to `C[C@H](NP(=O)(OC[C@@H]1C=C[C@H](n2cnc3c(NC4CC4)nc(N)nc32)C1)Oc1ccccc1)C(=O)OCC1CCCCC1` (stereo partly drawn) [Compound 1708, (1S,4R)-4-(2-amino-6-cyclopropylamino-9H-purin-9-yl)-2cyclopentene-1-methanol O-Phenyl-(cyclobexane-methoxy-L-alaninyl)-phosphate], the results for the EC50 in the series on HIV-1, in the series with HIV-2 and in the series on MSV [1] were 0.15 µM, 0.16 µM and 1.3 µM, respectively. Also, in the series with CEM cells, the CC50 was determined as 15.1 µM. In the series with MSV [2], this molecule returned an MCCMSV greater than 4.
`CCCCOC(=O)[C@H](C)NP(=O)(OC[C@@H]1C=C[C@H](n2cnc3c(NC4CC4)nc(N)nc32)C1)Oc1ccccc1` (stereo partly drawn) [Compound 1647, (1S,4R)-4-(2-amino-6-cyclopropylamino-9H-purin-9-yl)-2-cyclopentene-1-methanol O-Phenyl-(n-butoxy-L-alaninyl)-phosphate]: the EC50 in the series on HIV-1 was found to be 0.085 µM; in the series with HIV-2, 0.17 µM; in the series on MSV [1], 0.62 µM. The CC50 in the series on CEM cells amounted to 8.23 µM. For the same molecule, the MCCMSV in the series on MSV [2] is recorded as greater than 4.
Regarding `CC(C)CCOC(=O)C(C)NP(=O)(OC[C@@H]1C=C[C@H](n2cnc3c(NC4CC4)nc(N)nc32)C1)Oc1ccccc1` (stereo partly drawn) [Compound 1674, (1S,4R)-4-(2-amino-6-cyclopropylamino-9H-purin-9-yl)-2-cyclopentene-1-methanol O-(phenyl (3-methylbutyl)oxyalaninyl phosphate)], the EC50 stood at 0.25 µM with HIV-2 and 2.04 µM in the series with MSV [1]. The CC50 in the series with CEM cells was 10.7 µM. In addition, the MCCMSV in the series with MSV [2] is greater than 4.
As for `COC(=O)CC[C@H](NP(=O)(OC[C@@H]1C=C[C@H](n2cnc3c(NC4CC4)nc(N)nc32)C1)Oc1ccccc1)C(=O)OC` (stereo partly drawn) [Compound 1749, (1S,4R)-4-(2-amino6-cyclopropylamino-9H-purin-9-yl)-2-cyclopentene-1-methanol O-(phenyldimethoxy-L-glutamyl phosphate)], the EC50 is 3.5 µM with HIV-1 and 5.33 µM with HIV-2. Besides, in the series on CEM cells, the CC50 turned out to be 36.9 µM.
Consider `COC(=O)C[C@H](NP(=O)(OC[C@@H]1C=C[C@H](n2cnc3c(NC4CC4)nc(N)nc32)C1)Oc1ccccc1)C(=O)OC` (stereo partly drawn) [Compound 1589, (1S,4R)-4-(2-amino-6-cyclopropylamin9H-purin-9-yl)-2-cyclopentene-1-methanol O-[phenyl-(L-asparic acid dimethyl ester)]-phosphate], for which the EC50 amounted to 1.42 µM in the series with HIV-1 and 1.9 µM in the series on HIV-2. Besides, the CC50 in the series on CEM cells worked out at 44.2 µM.

One may read the CC50 as the concentration that lowers cell viability or growth by half.
